Results from US11203594B2, “Anti-proliferative agents for treating PAH” (Pfizer Inc., priority 2019, dated 2021).
Where two headings read alike, the source gives them in different places.

Key:
Format in all cases: biochemical
CDK6/Cyclin D1 = CDK6/Cyclin D1 (Homo sapiens (Human), UniProt Q00534); assay: CDK6/Cyclin D1 Mobility Shift Assay (MSA), Ki by Morrison equation; conditions: geometric mean, tested in CDK6/D1 Ki assay using MSA
Description: CDK6/Cyclin D1 Mobility Shift Assay (MSA)
The purpose of the CDK6/Cyclin D1 assay is to evaluate the inhibition (% inhibition, Kiapp and Ki values) in the presence of small molecule inhibitors by using a fluorescence based microfluidic mobility shift assay. CDK6/Cyclin D1 catalyzes the production of ADP from ATP that accompanies the phosphoryl transfer to the substrate peptide 5-FAM-Dyrktide The mobility shift assay electrophoretically separates the fluorescently labeled peptides (substrate and phosphorylated product) following the kinase reaction. Both substrate and product are measured and the ratio of these values is used to generate % conversion of substrate to product by the LabChip EZ Reader. Typical reaction solutions contained 2% DMSO (±inhibitor), 2% glycerol, 10 mM MgCl2, 1 mM DTT, 3.5 mM ATP, 0.005% Tween 20 (TW-20), 3 μM 5-FAM-Dyrktide, 4 nM activated CDK6/Cyclin D1 in 40 mM HEPES buffer at pH 7.5. […]
For all the CDK4 and CDK6 assays the Ki constant for compounds were calculated for each enzyme using the Morrison equation. Fractional activity was measured at different compound concentrations, [I] and the data fit to the Morrison equation where [E] is the enzyme concentration, [S] is the ATP concentration, and Kn^App is the apparent Km for ATP for each enzyme under each assay format. […]

CDK4/Cyclin D1 = CDK4/Cyclin D1 (Homo sapiens (Human), UniProt P11802); assay: CDK4/Cyclin D1 CHEF assay (Chelation-Enhanced Fluorescence), Ki by Morrison equation; conditions: geometric mean, read-out: CDK4/Cyclin D1 GMean Ki
Chain of CDK4/Cyclin D1 (P11802 whole entry): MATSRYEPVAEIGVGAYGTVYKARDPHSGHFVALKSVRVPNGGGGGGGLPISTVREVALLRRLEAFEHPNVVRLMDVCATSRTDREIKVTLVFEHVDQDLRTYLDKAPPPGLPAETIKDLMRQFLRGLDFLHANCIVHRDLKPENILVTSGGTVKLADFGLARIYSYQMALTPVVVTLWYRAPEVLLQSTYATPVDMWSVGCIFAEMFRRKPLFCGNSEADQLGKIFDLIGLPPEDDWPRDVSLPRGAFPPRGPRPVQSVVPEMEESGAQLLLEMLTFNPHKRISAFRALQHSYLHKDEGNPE
Chain of CDK4/Cyclin D1 (P24385 whole entry partner): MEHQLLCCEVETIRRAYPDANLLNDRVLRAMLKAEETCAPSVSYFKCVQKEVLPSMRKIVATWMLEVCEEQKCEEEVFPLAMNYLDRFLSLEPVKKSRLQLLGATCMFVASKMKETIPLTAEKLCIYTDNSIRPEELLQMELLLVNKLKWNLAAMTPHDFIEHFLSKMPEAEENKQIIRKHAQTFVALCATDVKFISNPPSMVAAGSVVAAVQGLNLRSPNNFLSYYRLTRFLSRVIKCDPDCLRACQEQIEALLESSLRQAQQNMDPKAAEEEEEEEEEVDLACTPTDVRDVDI
Description: (§1) In Vitro Purified Enzyme Assays to Determine Potency for CDKs
(§2) CDK4/Cyclin D1 and CDK6/Cylcin D3 CHEF Assay
(§3) The Chelation-Enhanced Fluorescence (CHEF) monitors the phosphorylation state in real time where the level of fluorescence is directly proportional to the amount of phosphorylated substrate. CHEF exploits a synthetic α-amino acid with a side chain bearing an 8-hydroxyquinoline derivative (sulfonamido-oxine, Sox) which, upon coordination to Mg(II), relays information on the phosphorylation state of a proximal serine, threonine or tyrosine residue in peptide-based kinase substrates. Phosphorylation of a specific peptide (Catalog # AQT0258) from AssayQuant Technologies results in an increase in fluorescence at the excitation and emission wavelengths of 360 nm Ex/485 nm Em.
(§4) Examples along with DMSO (negative) and Palbociclib (positive) controls were added to 384-well plates at 100-fold their final concentrations followed by the addition of 10 nM CDK4/Cyclin D1 (LJIC-2007F1) or 10 nM CDK6/Cyclin D3 (LJIC-2009H2) for a 20 minute pre-incubation in assay buffer containing 40 mM HEPES, 1 mM Dithiothreito (DTT, 10 mM MgCl2, 1% Glycerol, 0.1% BSA. Enzyme reactions were initiated by the addition of AssayQuant Technologies peptide and ATP substrates (10 μM CHEF peptide (Catalog # AQT0258), 2 mM ATP) and allowed to proceed for 2 hours followed by fluorescence read of the reaction. Ki determinations were made from a plot of the fractional velocity as a function of inhibitor concentration fit to the Morrison equation with the enzyme concentration as a variable.
(§5) For all the CDK4 and CDK6 assays the Ki constant for compounds were calculated for each enzyme using the Morrison equation. Fractional activity was measured at different compound concentrations, [I] and the data fit to the Morrison equation where [E] is the enzyme concentration, [S] is the ATP concentration, and Kn^App is the apparent Km for ATP for each enzyme under each assay format. With the Ki calculations dependent on the assay conditions for each assay format the resulting Ki becomes assay independent with a strong one to one correlation of Ki values for compounds tested in both assay formats.
(§6) In Table 2, assay data are presented to two (2) significant figures as the geometric mean (Ki) based on the number of replicates listed (Number). A cell having NA means there was no data for that Example in the indicated assay.

CDK6/Cyclin D3 = CDK6/Cyclin D3 (Homo sapiens (Human), UniProt Q00534); assay: CDK6/Cyclin D3 CHEF assay (Chelation-Enhanced Fluorescence), Ki by Morrison equation; conditions: geometric mean, read-out: CDK6/Cyclin D3: GMean Ki
Chain of CDK6/Cyclin D3 (Q00534 whole entry): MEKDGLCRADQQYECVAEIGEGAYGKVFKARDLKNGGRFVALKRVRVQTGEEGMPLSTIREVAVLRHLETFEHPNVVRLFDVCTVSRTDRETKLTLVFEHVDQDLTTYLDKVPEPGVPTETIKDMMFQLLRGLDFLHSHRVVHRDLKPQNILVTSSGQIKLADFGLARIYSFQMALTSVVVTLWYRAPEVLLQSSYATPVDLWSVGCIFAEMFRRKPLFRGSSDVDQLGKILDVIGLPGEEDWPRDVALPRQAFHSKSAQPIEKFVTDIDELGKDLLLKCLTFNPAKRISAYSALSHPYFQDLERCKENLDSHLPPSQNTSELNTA
Chain of CDK6/Cyclin D3 (P30281 whole entry partner): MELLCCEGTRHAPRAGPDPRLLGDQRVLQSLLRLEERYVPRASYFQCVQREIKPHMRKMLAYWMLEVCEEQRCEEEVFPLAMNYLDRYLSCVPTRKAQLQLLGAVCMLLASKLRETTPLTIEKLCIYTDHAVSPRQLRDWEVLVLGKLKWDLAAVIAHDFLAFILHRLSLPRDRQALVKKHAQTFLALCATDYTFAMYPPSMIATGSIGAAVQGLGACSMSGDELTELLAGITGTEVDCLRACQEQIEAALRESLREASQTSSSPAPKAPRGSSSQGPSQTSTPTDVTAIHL
Description: as §1, §2, §3, §4, §5, §6

Chain of CDK6/Cyclin D1 (Q00534 whole entry): as the sequence (Q00534 whole entry) above
Chain of CDK6/Cyclin D1 (P24385 whole entry partner): as the sequence (P24385 whole entry partner) above

For `CC(=O)c1c(C)c2cnc(N[C@@H]3CCOC[C@H]3O)nc2n([C@H]2CCC[C@]2(C)F)c1=O` (single isomer, unassigned) [Example 22], the Ki (CDK6/Cyclin D1; read-out: CDK6/Cyclin D3: GMean Ki (nM) (footnote c: CDK6/D1 Ki)) was 2.8 nM.

For `CC(=O)c1c(C)c2cnc(N[C@@H]3CCOC[C@H]3O)nc2n([C@@H]2CCC[C@]2(C)F)c1=O` (mixture of isomers) [Example 17, 6-Acetyl-8-[(1R,2S)-2-fluoro-2-methylcyclopentyl]-2-{[(3S,4R)-3-hydroxytetrahydro-2H-pyran-4-yl]amino}-5-methylpyrido[2,3-d]pyrimidin-7(8H)-one and 6-Acetyl-8-[(1S,2R)-2-fluoro-2-methylcyclopentyl]-2-{[(3S,4R)-3-hydroxytetrahydro-2H-pyran-4-yl]amino}-5-methylpyrido[2,3-d]pyrimidin-7(8H)-one], the “CDK6/Cyclin D3: GMean Ki (nM) (footnote c: CDK6/D1 Ki)” value (CDK6/Cyclin D1) was 10.5^c nM.

Work on `CC(=O)c1c(C)c2cnc(N[C@@H]3CCOC[C@H]3O)nc2n([C@@H]2CCC[C@@H]2C)c1=O` [Example 4, 6-Acetyl-2-{[(3S,4R)-3-hydroxytetrahydro-2H-pyran-4-yl]amino}-5-methyl-8-[(1R,2S)-2-methylcyclopentyl]pyrido[2,3-d]pyrimidin-7(8H)-one] yielded a Ki (CDK4/Cyclin D1; tested in CHEF Assay) of 1.6 nM and a Ki (CDK6/Cyclin D3; tested in CHEF Assay) of 2.1 nM.

Molecule `CC(=O)c1c(C)c2cnc(N[C@@H]3CCOC[C@H]3O)nc2n(C2CC2)c1=O` [Example 34] has a Ki (CDK4/Cyclin D1; tested in CHEF Assay) of 52 nM and a Ki (CDK6/Cyclin D3; tested in CHEF Assay) of 85 nM.

With `CC(=O)c1c(C)c2cnc(N[C@@H]3CCOC[C@H]3O)nc2n([C@H]2CCN(C)C2)c1=O` [Example 26] the Ki (CDK4/Cyclin D1; tested in CHEF Assay) was 13 nM and the Ki (CDK6/Cyclin D3; tested in CHEF Assay) was 39 nM.

In the case of `CC(=O)c1c(C)c2cnc(N[C@@H]3CCOC[C@H]3O)nc2n(C2CCCC2)c1=O` [Example 2, 6-acetyl-8-cyclopentyl-2-{[(3S,4R)-3-hydroxytetrahydro-2H-pyran-4-yl]amino}-5-methylpyrido[2,3-d]pyrimidin-7(8H)-one], the Ki (CDK4/Cyclin D1; tested in both CHEF and MSA) is reported as 0.8 nM and the Ki (CDK6/Cyclin D3; tested in both CHEF and MSA) is reported as 1.2 nM.

For `CC(=O)c1c(C)c2cnc(N[C@@H]3CCOC[C@H]3O)nc2n([C@H]2CCC[C@]2(C)O)c1=O` (mixture of isomers) [Example 7, 6-Acetyl-8-[(1S,2S)-2-hydroxy-2-methylcyclopentyl]-2-{[(3S,4R)-3-hydroxytetrahydro-2H-pyran-4-yl]amino}-5-methylpyrido[2,3-d]pyrimidin-7(8H)-one and 6-Acetyl-8-[(1R,2R)-2-hydroxy-2-methylcyclopentyl]-2-{[(3S,4R)-3-hydroxytetrahydro-2H-pyran-4-yl]amino}-5-methylpyrido[2,3-d]pyrimidin-7(8H)-one], the Ki (CDK4/Cyclin D1; tested in CHEF Assay) was 7.2 nM and the Ki (CDK6/Cyclin D3; tested in CHEF Assay) was 7.7 nM.

For `CC(=O)c1c(C)c2cnc(N[C@@H]3CCOC(C)(C)[C@H]3O)nc2n(C2CCCC2)c1=O` (mixture of isomers) [Example 9, 6-Acetyl-8-cyclopentyl-2-{[(3S,4R)-3-hydroxy-2,2-dimethyltetrahydro-2H-pyran-4-yl]amino}-5-methylpyrido[2,3-d]pyrimidin-7(8H)-one and 6-Acetyl-8-cyclopentyl-2-{[(3R,4S)-3-hydroxy-2,2-dimethyltetrahydro-2H-pyran-4-yl]amino}-5-methylpyrido[2,3-d]pyrimidin-7(8H)-one], the Ki (CDK4/Cyclin D1; tested in CHEF Assay) was 2.7 nM and the Ki (CDK6/Cyclin D3; tested in CHEF Assay) was 6.7 nM.

Molecule `CC(=O)c1c(C)c2cnc(N[C@@H]3CCOC[C@H]3O)nc2n([C@@H]2CCC[C@]2(C)F)c1=O` (mixture of isomers) [Example 16, 6-Acetyl-8-[(1R,2S)-2-fluoro-2-methylcyclopentyl]-2-{[(3S,4R)-3-hydroxytetrahydro-2H-pyran-4-yl]amino}-5-methylpyrido[2,3-d]pyrimidin-7(8H)-one and 6-Acetyl-8-[(1S,2R)-2-fluoro-2-methylcyclopentyl]-2-{[(3S,4R)-3-hydroxytetrahydro-2H-pyran-4-yl]amino}-5-methylpyrido[2,3-d]pyrimidin-7(8H)-one] has a Ki (CDK4/Cyclin D1; tested in CHEF Assay) of 2.6 nM and a Ki (CDK6/Cyclin D3; tested in CHEF Assay) of 5 nM.

`CC(=O)c1c(C)c2cnc(N[C@@H]3CCOC[C@H]3O)nc2n([C@H]2CC[C@H](N(C)C)CC2)c1=O` [Example 25] gave a Ki (CDK4/Cyclin D1; tested in CHEF Assay) of 36 nM and a Ki (CDK6/Cyclin D3; tested in CHEF Assay) of 110 nM.
